The assay concerns the target CFTR (Homo sapiens, UniProt P13569). As to the kind of experiment: Membrane Potential Dye, Enteroid Assay B. Format: cell-based. To be noted: for EC50: read-out: Ent. B EC50. Put shortly: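 Human intestinal enteroids seeded at 5000 cells/well, treated with compound 18-24 h at 37 °C, then loaded 25 min with methyl oxonol membrane-potential dye plus CaCC blockers. Chloride transport started in chloride-free buffer with 10 μM forskolin, 100 μM IBMX and 300 nM Compound III, read 15 min; expressed as % of triple-combination control.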

The text below walks through data of patent US20230374038A1, “MODULATORS OF CYSTIC FIBROSIS TRANSMEMBRANE CONDUCTANCE REGULATOR” (VERTEX PHARMACEUTICALS INCORPORATED, priority 2020, published 2023).

The EC50 is the concentration needed to bring the measured effect to its halfway point.

Structures are written as SMILES.

Sequence of CFTR (P13569 with tags, fused parts or gaps DEL508-508): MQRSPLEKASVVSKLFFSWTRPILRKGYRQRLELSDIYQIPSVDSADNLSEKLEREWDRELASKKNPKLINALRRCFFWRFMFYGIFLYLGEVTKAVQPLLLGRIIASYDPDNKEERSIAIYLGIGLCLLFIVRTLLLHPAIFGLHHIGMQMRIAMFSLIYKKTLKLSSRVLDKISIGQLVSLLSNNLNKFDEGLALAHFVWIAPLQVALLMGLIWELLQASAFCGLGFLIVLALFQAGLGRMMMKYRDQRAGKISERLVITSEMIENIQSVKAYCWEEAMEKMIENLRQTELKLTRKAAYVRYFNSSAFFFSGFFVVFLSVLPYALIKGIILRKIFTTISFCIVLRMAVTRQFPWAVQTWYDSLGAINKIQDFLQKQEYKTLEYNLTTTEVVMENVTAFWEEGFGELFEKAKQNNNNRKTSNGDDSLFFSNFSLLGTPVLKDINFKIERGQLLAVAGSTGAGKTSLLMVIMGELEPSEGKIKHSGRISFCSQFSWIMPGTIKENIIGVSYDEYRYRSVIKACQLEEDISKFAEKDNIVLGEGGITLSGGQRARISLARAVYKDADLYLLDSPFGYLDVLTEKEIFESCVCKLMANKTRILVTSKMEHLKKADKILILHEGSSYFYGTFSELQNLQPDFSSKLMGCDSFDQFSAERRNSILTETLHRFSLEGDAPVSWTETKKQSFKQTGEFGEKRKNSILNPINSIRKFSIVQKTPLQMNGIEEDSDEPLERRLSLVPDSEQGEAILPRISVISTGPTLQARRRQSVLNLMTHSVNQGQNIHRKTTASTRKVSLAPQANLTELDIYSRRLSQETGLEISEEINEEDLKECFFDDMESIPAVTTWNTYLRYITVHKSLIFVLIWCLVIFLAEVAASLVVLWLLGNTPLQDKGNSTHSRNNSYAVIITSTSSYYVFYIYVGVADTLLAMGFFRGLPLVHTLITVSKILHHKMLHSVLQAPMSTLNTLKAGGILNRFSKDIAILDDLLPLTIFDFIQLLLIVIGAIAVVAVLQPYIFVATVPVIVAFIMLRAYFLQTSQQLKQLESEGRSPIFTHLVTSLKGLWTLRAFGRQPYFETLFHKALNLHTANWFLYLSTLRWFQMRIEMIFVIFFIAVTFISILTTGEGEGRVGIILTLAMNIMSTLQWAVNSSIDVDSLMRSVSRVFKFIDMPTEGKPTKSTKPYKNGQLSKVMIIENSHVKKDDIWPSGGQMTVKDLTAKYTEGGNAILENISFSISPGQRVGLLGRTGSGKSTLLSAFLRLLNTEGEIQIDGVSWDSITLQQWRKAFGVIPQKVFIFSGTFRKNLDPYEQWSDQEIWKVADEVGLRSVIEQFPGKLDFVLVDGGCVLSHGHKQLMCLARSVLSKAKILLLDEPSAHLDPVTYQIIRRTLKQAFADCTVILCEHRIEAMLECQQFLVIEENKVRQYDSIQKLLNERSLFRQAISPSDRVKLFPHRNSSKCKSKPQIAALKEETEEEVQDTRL

In the case of `Cc1cccc(C)c1-c1nc2nc(c1C)OC[C@@H](CC(C)(C)C)N(C1CC3(CC(NC(=O)OC(C)C)C3)C1)C(=O)c1cccc(c1)S(=O)(=O)N2` (single isomer, unassigned) [Compound 65], the “Ent. B Max Activity” value is recorded as “+++ (+++ is >60%)” and the EC50 was less than 1000 nM.

For the compound `Cc1cccc(C)c1-c1nc2nc(c1-c1cnn(C(C)C)c1)OC[C@@H](C)NC(=O)c1cccc(c1)S(=O)(=O)N2` [Compound 139], the “Ent. B Max Activity” value was “+ (+ is <30%)” and the 50% effective concentration (EC50) was in the range of 3000 to 30000 nM. In the same order, the values of `Cc1cccc(C)c1-c1nc2nc(c1C)OC[C@@H](CC(C)C)N(C1CC3(CC(CO)C3)C1)C(=O)c1cccc(c1)S(=O)(=O)N2` (stereo in doubt) [Compound 66] are “+++ (+++ is >60%)” and less than 1000 nM. In the same order, the values of `Cc1cccc(C)c1-c1nc2nc(c1C)OC[C@@H](CC1(C(F)(F)F)CC1)N(C1CC3(CC(NC(=O)OC(C)(C)C)C3)C1)C(=O)c1cccc(c1)S(=O)(=O)N2` (stereo in doubt) [Compound 97] are “+++ (+++ is >60%)” and less than 1000 nM. In the same order, the values of `Cc1cccc(C)c1-c1nc2nc(c1C)OC[C@@H](CC1(C(F)(F)F)CC1)N(C1CC3(CC(NC(=O)OC(C)C)C3)C1)C(=O)c1cccc(c1)S(=O)(=O)N2` (stereo in doubt) [Compound 87] are “+++ (+++ is >60%)” and less than 1000 nM. Consider `COC(=O)NC1CC2(C1)CC(N1C(=O)c3cccc(c3)S(=O)(=O)Nc3nc(c(C)c(-c4c(C)cccc4C)n3)OC[C@H]1CC(C)C)C2` (stereo in doubt) [Compound 69], for which the “Ent. B Max Activity” value is reported as “+++ (+++ is >60%)” and the 50% effective concentration (EC50) was less than 1000 nM.

In the case of `Cc1cccc(C)c1-c1nc2nc(c1C1=CCN(C(=O)OC(C)(C)C)CC1)OC[C@@H](C)NC(=O)c1cccc(c1)S(=O)(=O)N2` [Compound 136], the “Ent. B Max Activity” value is given as “++ (++ is 30-60%)” and the 50% effective concentration (EC50) was in the range of 1000 to 3000 nM. For `COC1CC(N2C(=O)c3cccc(c3)S(=O)(=O)Nc3nc(c(C)c(-c4c(C)cccc4C)n3)OC[C@H]2CC(C)C)C1` (stereo in doubt) [Compound 72] the same measures were “+++ (+++ is >60%)” and less than 1000 nM. For `[H][C@]1(N2C(=O)c3cccc(c3)S(=O)(=O)Nc3nc(c(C)c(-c4c(C)cccc4C)n3)OC[C@H]2CC(C)(C)C)C[C@@]2(C[C@H](C(C)(C)O)C2)C1` (single isomer, unassigned) [Compound 57] the same measures were “+++ (+++ is >60%)” and less than 1000 nM. In the same order, the values of `Cc1cccc(C)c1-c1nc2nc(c1C)OC[C@@H](CC(C)(C)O)N(Cc1ccc(C(C)(C)O)cc1)C(=O)c1cccc(c1)S(=O)(=O)N2` [Compound 114] are “+++ (+++ is >60%)” and less than 1000 nM. As to `COc1ccc(-c2c3nc(nc2-c2c(C)cccc2C)NS(=O)(=O)c2cccc(c2)C(=O)N[C@H](C)CO3)cc1` [Compound 144], the “Ent. B Max Activity” value was “+++ (+++ is >60%)” and the EC50 is less than 1000 nM.

On to `Cc1cccc(C)c1-c1nc2nc(c1C)OC[C@@H](CC1(C(F)(F)F)CC1)N(C1CC3(CC(NC(=O)OC(C)C)C3)C1)C(=O)c1cccc(c1)S(=O)(=O)N2` (stereo in doubt) [Compound 89], for which the “Ent. B Max Activity” value is recorded as “+++ (+++ is >60%)” and the EC50 was less than 1000 nM. As to `Cc1cccc(C)c1-c1nc2nc(c1-c1ccn(C)n1)OC[C@@H](C)NC(=O)c1cccc(c1)S(=O)(=O)N2` [Compound 137], the “Ent. B Max Activity” value is “+ (+ is <30%)”. Turning to `Cc1cccc(C)c1-c1nc2nc(c1C)OC[C@@H](CC(C)C)N(C1CC3(CCN(C(=O)OC(C)C)CC3)C1)C(=O)c1cccc(c1)S(=O)(=O)N2` [Compound 70], the “Ent. B Max Activity” value is recorded as “+++ (+++ is >60%)” and the EC50 is less than 1000 nM.

On to `Cc1cccc(C)c1-c1nc2nc(c1C#N)OC[C@@H](CC(C)C)N(C1CC3(CC3)C1)C(=O)c1cccc(c1)S(=O)(=O)N2` [Compound 174], for which the “Ent. B Max Activity” value was “++ (++ is 30-60%)” and the EC50 was less than 1000 nM.

On to `Cc1cccc(C)c1-c1nc2nc(c1OC(C)C)OC[C@@H](CC(C)C)N(C1CC3(CC3)C1)C(=O)c1cccc(c1)S(=O)(=O)N2` [Compound 189], for which the “Ent. B Max Activity” value is “+++ (+++ is >60%)” and the concentration giving a half-maximal response (EC50) is less than 1000 nM. In the same order, the values of `Cc1cccc(C)c1-c1nc2nc(c1C#N)OC[C@@H](CC(C)C)NC(=O)c1cccc(c1)S(=O)(=O)N2` [Compound 169, (11R)-6-(2,6-Dimethylphenyl)-11-isobutyl-2,2,13-trioxo-9-oxa-2λ^6-thia-3,5,12,19-tetrazatricyclo[12.3.1.14,8]nonadeca-1(18),4(19),5,7,14,16-hexaene-7-carbonitrile] are “+++ (+++ is >60%)” and 3000 to 30000 nM. Regarding `Cc1cccc(C)c1-c1nc2nc(c1C)O[C@H](C)CN(C1CC3(CC(NC(=O)OC(C)(C)C)C3)C1)C(=O)c1cccc(c1)S(=O)(=O)N2` (some centres unmarked) [Compound 201], the “Ent. B Max Activity” value is “++ (++ is 30-60%)” and the 50% effective concentration (EC50) was less than 1000 nM.

With `Cc1cccc(C)c1-c1nc2nc(c1C1CCN(C(=O)OC(C)(C)C)CC1)O[C@H](C)CNC(=O)c1cccc(c1)S(=O)(=O)N2` [Compound 150], the “Ent. B Max Activity” value is given as “++ (++ is 30-60%)” and the EC50 fell in the range of 1000 to 3000 nM. In the same order, the values of `Cc1cccc(C)c1-c1nc2nc(c1/C=C/C(C)(C)C)OC[C@@H](CC(C)C)NC(=O)c1cccc(c1)S(=O)(=O)N2` [Compound 126, (11R)-7-[(1E)-3,3-dimethylbut-1-en-1-yl]-6-(2,6-dimethylphenyl)-11-(2-methylpropyl)-9-oxa-2λ^6-thia-3,5,12,19-tetraazatricyclo[12.3.1.14,8]nonadeca-1(17),4,6,8(19),14(18),15-hexaene-2,2,13-trione] are “+++ (+++ is >60%)” and less than 1000 nM. With `COc1ccccc1-c1c2nc(nc1-c1c(C)cccc1C)NS(=O)(=O)c1cccc(c1)C(=O)NC[C@@H](C)O2` [Compound 153], the “Ent. B Max Activity” value was “+++ (+++ is >60%)” and the EC50 was less than 1000 nM.

`Cc1cccc(C)c1-c1nc2nc(c1C)OC[C@@H](CC(C)(C)C)N(C1CC3(CC(NC(=O)OC(C)(C)C)C3)C1)C(=O)c1cccc(c1)S(=O)(=O)N2` (single isomer, unassigned) [Compound 60]: the “Ent. B Max Activity” value is “+++ (+++ is >60%)” and the EC50 was less than 1000 nM.

Regarding `Cc1cccc(C)c1-c1nc2nc(c1C)OC[C@@H](CC(C)(C)C(F)(F)F)N(C1CC3(CCNCC3)C1)C(=O)c1cccc(c1)S(=O)(=O)N2` [Compound 157, (11R)-12-{7-Azaspiro[3.5]nonan-2-yl}-6-(2,6-dimethylphenyl)-7-methyl-11-(3,3,3-trifluoro-2,2-dimethylpropyl)-9-oxa-2λ^6-thia-3,5,12,19-tetraazatricyclo[12.3.1.14,8]nonadeca-1(17),4(19),5,7,14(18),15-hexaene-2,2,13-trione], the “Ent. B Max Activity” value is reported as “+++ (+++ is >60%)” and the 50% effective concentration (EC50) is less than 1000 nM. For `Cc1cccc(C)c1-c1nc2nc(c1C)OC[C@@H](CC1(C(F)(F)F)CC1)N(C1CC3(CC(N)C3)C1)C(=O)c1cccc(c1)S(=O)(=O)N2` (some centres unmarked) [Compound 92] the same measures were “+++ (+++ is >60%)” and less than 1000 nM.
